Test results reported in the kinase profiling compilation of Christmann-Franck et al. (2016).

Key:
Experiment in all cases: radiometric filter-binding kinase assay
MAPK9 (human) = MAPK9 (human) (UniProt P45984)
MAPK8 (human) = MAPK8 (human) (UniProt P45983)
PHKG1 (human) = PHKG1 (human) (UniProt Q16816)
BRSK1 (human) = BRSK1 (human) (UniProt Q8TDC3)
BRSK2 (human) = BRSK2 (human) (UniProt Q8IWQ3)
CHEK1 (human) = CHEK1 (human) (UniProt O14757)
IRAK4 (human) = IRAK4 (human) (UniProt Q9NWZ3)
TSSK1B (human) = TSSK1B (human) (UniProt Q9BXA7)
DAPK1 (human) = DAPK1 (human) (UniProt P53355)
FGFR1 (human) = FGFR1 (human) (UniProt P11362)
JAK2 JH1 JH2 (human) = JAK2 JH1 JH2 (human) (UniProt O60674); conditions: compound 1.0 µM
NEK6 (human) = NEK6 (human) (UniProt Q9HC98)
MAPKAPK5 (human) = MAPKAPK5 (human) (UniProt Q8IW41)
TTBK2 (human) = TTBK2 (human) (UniProt Q6IQ55)
PTK6 (human) = PTK6 (human) (UniProt Q13882)
MAP2K6 (human) = MAP2K6 (human) (UniProt P52564)
MAP2K6 (human), sequence (P52564 whole entry, looked up): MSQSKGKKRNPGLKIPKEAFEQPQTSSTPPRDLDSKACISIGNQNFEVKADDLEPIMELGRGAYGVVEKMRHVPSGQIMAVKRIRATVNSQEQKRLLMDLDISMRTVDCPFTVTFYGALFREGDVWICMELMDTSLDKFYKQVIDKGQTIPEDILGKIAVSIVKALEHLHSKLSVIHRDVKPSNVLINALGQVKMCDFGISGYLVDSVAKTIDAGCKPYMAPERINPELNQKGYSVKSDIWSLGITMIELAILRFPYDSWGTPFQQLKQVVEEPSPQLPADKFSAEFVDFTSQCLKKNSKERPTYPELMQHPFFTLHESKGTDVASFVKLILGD

CSNK1G2 (human) = CSNK1G2 (human) (UniProt P78368)
STK33 (human) = STK33 (human) (UniProt Q9BYT3)
HIPK1 (human) = HIPK1 (human) (UniProt Q86Z02)
[1] = tested on: SGK1 (human), O00141 [S422D]
CDK9 CCNT1 (human) = CDK9 CCNT1 (human) (UniProt P50750+O60563)
STK3 (human) = STK3 (human) (UniProt Q13188)
EPHB4 (human) = EPHB4 (human) (UniProt P54760)
TEK (human) = TEK (human) (UniProt Q02763)
CSNK1D (human) = CSNK1D (human) (UniProt P48730)
CSNK1D (human), sequence (P48730 whole entry, looked up): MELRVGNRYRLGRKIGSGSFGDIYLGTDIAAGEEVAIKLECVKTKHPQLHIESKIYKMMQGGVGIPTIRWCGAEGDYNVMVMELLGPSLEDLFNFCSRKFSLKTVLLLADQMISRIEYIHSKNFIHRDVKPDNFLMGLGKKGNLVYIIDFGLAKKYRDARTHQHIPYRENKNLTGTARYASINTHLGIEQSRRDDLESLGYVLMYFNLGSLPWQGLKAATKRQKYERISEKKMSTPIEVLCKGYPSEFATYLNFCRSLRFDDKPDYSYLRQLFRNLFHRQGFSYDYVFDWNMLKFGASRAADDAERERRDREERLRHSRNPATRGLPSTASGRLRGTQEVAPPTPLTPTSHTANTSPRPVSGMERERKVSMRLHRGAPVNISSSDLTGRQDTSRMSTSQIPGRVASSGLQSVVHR

PKN2 (human) = PKN2 (human) (UniProt Q16513)
PKN2 (human), sequence (Q16513 whole entry, looked up): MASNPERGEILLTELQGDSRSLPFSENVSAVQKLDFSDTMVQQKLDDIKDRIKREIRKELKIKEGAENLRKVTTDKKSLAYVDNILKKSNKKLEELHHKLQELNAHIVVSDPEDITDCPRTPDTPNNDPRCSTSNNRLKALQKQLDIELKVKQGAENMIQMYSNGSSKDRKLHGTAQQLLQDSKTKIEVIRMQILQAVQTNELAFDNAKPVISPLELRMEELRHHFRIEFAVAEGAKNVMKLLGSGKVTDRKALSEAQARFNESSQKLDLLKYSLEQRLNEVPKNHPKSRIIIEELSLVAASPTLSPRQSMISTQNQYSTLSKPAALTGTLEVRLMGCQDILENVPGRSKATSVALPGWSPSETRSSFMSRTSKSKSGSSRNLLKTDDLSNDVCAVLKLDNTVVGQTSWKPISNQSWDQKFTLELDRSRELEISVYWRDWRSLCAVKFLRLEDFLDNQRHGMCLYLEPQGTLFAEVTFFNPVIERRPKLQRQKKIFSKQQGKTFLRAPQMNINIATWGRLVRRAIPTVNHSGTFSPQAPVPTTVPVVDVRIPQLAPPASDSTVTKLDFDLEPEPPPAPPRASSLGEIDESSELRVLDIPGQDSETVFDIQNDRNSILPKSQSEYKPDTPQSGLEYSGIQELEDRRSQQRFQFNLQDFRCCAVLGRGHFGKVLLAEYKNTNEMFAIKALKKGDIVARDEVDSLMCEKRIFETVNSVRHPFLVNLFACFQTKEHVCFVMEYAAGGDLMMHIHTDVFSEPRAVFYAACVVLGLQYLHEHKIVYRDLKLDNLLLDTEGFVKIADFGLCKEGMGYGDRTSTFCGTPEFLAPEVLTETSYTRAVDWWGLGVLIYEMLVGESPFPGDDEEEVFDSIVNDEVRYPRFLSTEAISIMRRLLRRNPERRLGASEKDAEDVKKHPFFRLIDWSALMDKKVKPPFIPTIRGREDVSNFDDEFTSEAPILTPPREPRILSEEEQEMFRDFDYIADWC

TLK1 (human) = TLK1 (human) (UniProt Q9UKI8)
TLK1 (human), sequence (Q9UKI8 whole entry, looked up): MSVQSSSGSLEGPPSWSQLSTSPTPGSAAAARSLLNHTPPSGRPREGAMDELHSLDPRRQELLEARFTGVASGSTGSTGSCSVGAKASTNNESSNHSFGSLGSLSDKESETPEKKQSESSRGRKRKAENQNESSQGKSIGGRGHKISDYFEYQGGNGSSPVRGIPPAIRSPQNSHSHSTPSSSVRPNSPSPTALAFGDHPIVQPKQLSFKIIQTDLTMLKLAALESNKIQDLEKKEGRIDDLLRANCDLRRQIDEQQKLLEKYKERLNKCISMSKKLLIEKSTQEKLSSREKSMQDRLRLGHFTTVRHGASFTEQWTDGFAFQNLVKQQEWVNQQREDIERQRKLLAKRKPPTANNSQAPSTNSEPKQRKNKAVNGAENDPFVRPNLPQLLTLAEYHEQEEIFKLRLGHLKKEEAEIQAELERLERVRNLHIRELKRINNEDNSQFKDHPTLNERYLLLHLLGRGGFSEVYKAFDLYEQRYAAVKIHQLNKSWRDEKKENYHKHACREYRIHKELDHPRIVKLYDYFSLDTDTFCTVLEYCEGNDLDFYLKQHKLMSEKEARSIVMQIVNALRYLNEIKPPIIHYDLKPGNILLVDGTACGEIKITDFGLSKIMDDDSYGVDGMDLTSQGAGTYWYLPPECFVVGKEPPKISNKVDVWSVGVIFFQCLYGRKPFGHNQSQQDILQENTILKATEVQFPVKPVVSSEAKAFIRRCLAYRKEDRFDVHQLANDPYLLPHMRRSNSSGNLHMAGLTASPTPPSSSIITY

INSRR (human) = INSRR (human) (UniProt P14616)
MAPK13 (human) = MAPK13 (human) (UniProt O15264)
MAPK13 (human), sequence (O15264 whole entry, looked up): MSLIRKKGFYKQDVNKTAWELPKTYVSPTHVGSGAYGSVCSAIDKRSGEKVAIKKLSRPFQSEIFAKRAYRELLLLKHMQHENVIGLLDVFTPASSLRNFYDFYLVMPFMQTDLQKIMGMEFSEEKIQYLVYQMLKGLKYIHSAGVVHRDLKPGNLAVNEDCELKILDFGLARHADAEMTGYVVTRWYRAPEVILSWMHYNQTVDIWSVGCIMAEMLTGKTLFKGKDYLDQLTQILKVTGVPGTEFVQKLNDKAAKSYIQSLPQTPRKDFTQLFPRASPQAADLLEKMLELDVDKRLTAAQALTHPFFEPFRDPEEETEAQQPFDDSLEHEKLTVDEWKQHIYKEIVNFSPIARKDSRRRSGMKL

PAK7 (human) = PAK7 (human) (UniProt Q9P286); conditions: compound 1.0 µM
PRKCG (human) = PRKCG (human) (UniProt P05129)
DYRK1A (human) = DYRK1A (human) (UniProt Q13627); conditions: compound 1.0 µM

MAPK9 (human), sequence (P45984 whole entry, looked up): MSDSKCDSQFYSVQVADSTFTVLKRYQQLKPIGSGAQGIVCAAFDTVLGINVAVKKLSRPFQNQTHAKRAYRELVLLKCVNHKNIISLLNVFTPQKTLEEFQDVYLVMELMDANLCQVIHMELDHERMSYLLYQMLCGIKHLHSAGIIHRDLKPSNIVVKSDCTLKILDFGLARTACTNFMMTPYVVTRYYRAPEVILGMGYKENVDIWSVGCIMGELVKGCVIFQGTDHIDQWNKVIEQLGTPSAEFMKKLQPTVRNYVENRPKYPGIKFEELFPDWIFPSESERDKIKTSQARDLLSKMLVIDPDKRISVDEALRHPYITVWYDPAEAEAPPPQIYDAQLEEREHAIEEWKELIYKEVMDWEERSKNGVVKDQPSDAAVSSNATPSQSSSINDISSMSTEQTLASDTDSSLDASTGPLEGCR
BRSK1 (human), sequence (Q8TDC3 whole entry, looked up): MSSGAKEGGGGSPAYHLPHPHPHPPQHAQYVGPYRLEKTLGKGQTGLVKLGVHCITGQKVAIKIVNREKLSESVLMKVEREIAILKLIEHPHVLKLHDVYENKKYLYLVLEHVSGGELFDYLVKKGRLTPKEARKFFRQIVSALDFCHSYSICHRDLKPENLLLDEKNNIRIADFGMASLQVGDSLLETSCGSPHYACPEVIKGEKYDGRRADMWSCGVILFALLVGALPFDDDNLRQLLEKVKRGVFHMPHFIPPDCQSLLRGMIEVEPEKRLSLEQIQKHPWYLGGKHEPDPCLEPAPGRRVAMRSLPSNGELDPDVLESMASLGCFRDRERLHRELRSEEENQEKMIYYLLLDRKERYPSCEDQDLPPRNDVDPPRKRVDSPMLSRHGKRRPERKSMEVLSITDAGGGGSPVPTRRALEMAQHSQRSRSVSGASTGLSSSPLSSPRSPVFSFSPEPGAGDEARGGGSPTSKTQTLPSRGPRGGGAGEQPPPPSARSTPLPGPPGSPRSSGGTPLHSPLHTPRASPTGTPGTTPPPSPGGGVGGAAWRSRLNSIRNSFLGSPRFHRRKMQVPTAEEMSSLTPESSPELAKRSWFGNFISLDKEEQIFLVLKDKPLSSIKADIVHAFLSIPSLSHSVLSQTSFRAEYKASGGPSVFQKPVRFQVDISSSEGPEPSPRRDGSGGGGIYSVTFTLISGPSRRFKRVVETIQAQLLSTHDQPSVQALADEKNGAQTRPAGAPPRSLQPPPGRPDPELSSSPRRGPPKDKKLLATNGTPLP

CNc1nc(Nc2ccc(C(=O)N3CCOCC3)cc2OC)ncc1Cl
residual activity (MAPK9 (human); compound 1.0 µM): 76%
residual activity (MAPK9 (human); compound 10.0 µM): 46%
residual activity (MAPK8 (human); compound 1.0 µM): 89%
residual activity (MAPK8 (human); compound 10.0 µM): 37%
residual activity (PHKG1 (human); compound 1.0 µM): 68%
residual activity (PHKG1 (human); compound 10.0 µM): 23%
residual activity (BRSK1 (human); compound 1.0 µM): 59%
residual activity (BRSK1 (human); compound 10.0 µM): 78%
residual activity (BRSK2 (human); compound 1.0 µM): 78%
residual activity (BRSK2 (human); compound 10.0 µM): 64%
residual activity (CHEK1 (human); compound 1.0 µM): 65%
residual activity (CHEK1 (human); compound 10.0 µM): 45%
residual activity (IRAK4 (human); compound 1.0 µM): 90%
residual activity (IRAK4 (human); compound 10.0 µM): 86%
residual activity (TSSK1B (human); compound 1.0 µM): 51%
residual activity (TSSK1B (human); compound 10.0 µM): 19%
residual activity (DAPK1 (human); compound 1.0 µM): 61%
residual activity (DAPK1 (human); compound 10.0 µM): 23%
residual activity (FGFR1 (human); compound 1.0 µM): 89%
residual activity (FGFR1 (human); compound 10.0 µM): 86%
residual activity (JAK2 JH1 JH2 (human)): 83%
residual activity (NEK6 (human); compound 1.0 µM): 73%
residual activity (NEK6 (human); compound 10.0 µM): 69%
residual activity (MAPKAPK5 (human); compound 1.0 µM): 91%
residual activity (MAPKAPK5 (human); compound 10.0 µM): 44%
residual activity (TTBK2 (human); compound 1.0 µM): 115%
residual activity (TTBK2 (human); compound 10.0 µM): 97%
residual activity (PTK6 (human); compound 1.0 µM): 56%
residual activity (PTK6 (human); compound 10.0 µM): 39%
residual activity (MAP2K6 (human); compound 1.0 µM): 74%
residual activity (MAP2K6 (human); compound 10.0 µM): 65%
residual activity (CSNK1G2 (human); compound 1.0 µM): 96%
residual activity (CSNK1G2 (human); compound 10.0 µM): 93%
residual activity (STK33 (human); compound 1.0 µM): 61%
residual activity (STK33 (human); compound 10.0 µM): 28%
residual activity (HIPK1 (human); compound 1.0 µM): 77%
residual activity (HIPK1 (human); compound 10.0 µM): 94%
residual activity ([1]; compound 1.0 µM): 94%
residual activity ([1]; compound 10.0 µM): 91%
residual activity (CDK9 CCNT1 (human); compound 1.0 µM): 89%
residual activity (CDK9 CCNT1 (human); compound 10.0 µM): 83%
residual activity (STK3 (human); compound 1.0 µM): 85%
residual activity (STK3 (human); compound 10.0 µM): 73%
residual activity (EPHB4 (human); compound 1.0 µM): 94%
residual activity (EPHB4 (human); compound 10.0 µM): 113%
residual activity (TEK (human); compound 1.0 µM): 79%
residual activity (TEK (human); compound 10.0 µM): 90%
residual activity (CSNK1D (human); compound 1.0 µM): 44%
residual activity (CSNK1D (human); compound 10.0 µM): 89%
residual activity (PKN2 (human); compound 1.0 µM): 102%
residual activity (PKN2 (human); compound 10.0 µM): 92%
residual activity (TLK1 (human); compound 1.0 µM): 61%
residual activity (TLK1 (human); compound 10.0 µM): 100%
residual activity (INSRR (human); compound 1.0 µM): 126%
residual activity (INSRR (human); compound 10.0 µM): 97%
residual activity (MAPK13 (human); compound 1.0 µM): 87%
residual activity (MAPK13 (human); compound 10.0 µM): 86%
residual activity (PAK7 (human)): 88%
residual activity (PRKCG (human); compound 1.0 µM): 93%
residual activity (PRKCG (human); compound 10.0 µM): 108%
residual activity (DYRK1A (human)): 79%
